Key:
Type in all cases: cell-based
human TLR7 = target: T1, human TLR7 (Homo sapiens, UniProt Q9NYK1); test: TLR7 inhibition reporter assay (HEK-Blue cells, SEAP reporter, gardiquimod stimulation); conditions: HEK-Blue cells overexpressing human TLR7, SEAP reporter, gardiquimod 7.5 μM
T1 construct: host or cells: HEK-Blue cells
T1 sequence (Q9NYK1 27-1049): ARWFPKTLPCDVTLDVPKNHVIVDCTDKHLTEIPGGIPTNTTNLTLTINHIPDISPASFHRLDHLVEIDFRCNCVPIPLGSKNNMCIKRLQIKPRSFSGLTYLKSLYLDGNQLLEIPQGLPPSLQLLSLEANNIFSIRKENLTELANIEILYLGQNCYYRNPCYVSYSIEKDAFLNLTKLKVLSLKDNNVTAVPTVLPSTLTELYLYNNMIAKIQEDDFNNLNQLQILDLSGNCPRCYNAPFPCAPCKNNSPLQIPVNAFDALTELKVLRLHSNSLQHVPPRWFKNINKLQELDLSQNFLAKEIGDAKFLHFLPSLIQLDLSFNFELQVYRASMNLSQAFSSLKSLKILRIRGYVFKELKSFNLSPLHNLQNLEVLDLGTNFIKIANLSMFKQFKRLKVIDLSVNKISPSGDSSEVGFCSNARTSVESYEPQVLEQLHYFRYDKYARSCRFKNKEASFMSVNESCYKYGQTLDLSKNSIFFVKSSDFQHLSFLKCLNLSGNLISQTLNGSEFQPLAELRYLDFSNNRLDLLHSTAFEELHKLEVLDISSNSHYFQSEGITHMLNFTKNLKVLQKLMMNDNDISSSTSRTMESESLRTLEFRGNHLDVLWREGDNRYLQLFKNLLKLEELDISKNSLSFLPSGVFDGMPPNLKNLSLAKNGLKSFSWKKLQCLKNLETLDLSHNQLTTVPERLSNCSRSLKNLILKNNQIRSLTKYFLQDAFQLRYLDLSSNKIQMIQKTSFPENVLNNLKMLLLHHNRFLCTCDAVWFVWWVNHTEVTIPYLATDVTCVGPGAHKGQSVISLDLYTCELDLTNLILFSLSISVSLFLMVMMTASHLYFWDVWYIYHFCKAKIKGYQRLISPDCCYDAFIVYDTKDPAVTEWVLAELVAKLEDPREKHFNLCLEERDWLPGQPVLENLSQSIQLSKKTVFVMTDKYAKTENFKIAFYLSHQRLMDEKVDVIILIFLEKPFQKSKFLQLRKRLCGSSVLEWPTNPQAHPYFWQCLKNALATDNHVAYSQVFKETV
In short: (§1)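 Dose range 0.05 nM–50 μM; 30 min preincubation, RT. Agonists: TLR7 gardiquimod 7.5 μM, TLR8 R848 15.9 μM, TLR9 ODN2006 5 nM. 22 h, 37 °C, 5% CO2. SEAP (IFN-β minimal promoter with NF-κB/AP-1 sites) via colorimetric detection medium; % inhibition vs agonist+DMSO and reference-inhibitor wells.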

human TLR8 = target: T2, human TLR8 (Homo sapiens, UniProt Q9NR97); test: TLR8 inhibition reporter assay (HEK-Blue cells, SEAP reporter, R848 stimulation); conditions: HEK-Blue cells overexpressing human TLR8, SEAP reporter, R848 15.9 μM
T2 construct: host or cells: HEK-Blue cells
T2 sequence (Q9NR97 27-1041): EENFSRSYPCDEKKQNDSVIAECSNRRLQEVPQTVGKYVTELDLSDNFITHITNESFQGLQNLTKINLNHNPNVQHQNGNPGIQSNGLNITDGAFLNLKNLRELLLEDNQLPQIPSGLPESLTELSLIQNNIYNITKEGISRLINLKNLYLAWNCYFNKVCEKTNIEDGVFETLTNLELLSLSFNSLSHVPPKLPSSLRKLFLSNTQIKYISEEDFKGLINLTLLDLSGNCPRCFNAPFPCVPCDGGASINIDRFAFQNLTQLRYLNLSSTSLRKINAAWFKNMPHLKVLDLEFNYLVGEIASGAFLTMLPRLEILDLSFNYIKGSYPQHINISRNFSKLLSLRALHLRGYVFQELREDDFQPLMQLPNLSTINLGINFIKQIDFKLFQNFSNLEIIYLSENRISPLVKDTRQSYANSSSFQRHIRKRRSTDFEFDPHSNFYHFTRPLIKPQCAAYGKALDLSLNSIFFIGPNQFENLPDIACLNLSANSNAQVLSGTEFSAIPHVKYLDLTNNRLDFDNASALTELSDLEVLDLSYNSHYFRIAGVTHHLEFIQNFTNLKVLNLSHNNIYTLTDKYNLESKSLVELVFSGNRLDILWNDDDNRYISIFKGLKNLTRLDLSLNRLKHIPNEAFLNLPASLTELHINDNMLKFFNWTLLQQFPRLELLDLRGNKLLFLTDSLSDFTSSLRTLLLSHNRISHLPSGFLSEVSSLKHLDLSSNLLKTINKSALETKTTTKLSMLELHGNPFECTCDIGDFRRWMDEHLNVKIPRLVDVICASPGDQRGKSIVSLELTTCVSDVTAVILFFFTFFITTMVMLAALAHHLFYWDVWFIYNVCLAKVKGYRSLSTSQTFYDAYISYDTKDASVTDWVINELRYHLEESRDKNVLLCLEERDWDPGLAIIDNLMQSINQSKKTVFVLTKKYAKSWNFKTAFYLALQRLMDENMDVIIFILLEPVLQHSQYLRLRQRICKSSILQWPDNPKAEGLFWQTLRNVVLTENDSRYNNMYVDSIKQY
In short: as §1

human TLR9 = target: T3, human TLR9 (Homo sapiens, UniProt Q9NR96); test: TLR9 inhibition reporter assay (HEK-Blue cells, SEAP reporter, ODN2006 stimulation); conditions: HEK-Blue cells overexpressing human TLR9, SEAP reporter, ODN2006 5 nM
T3 construct: host or cells: HEK-Blue cells
T3 sequence (Q9NR96 26-1032): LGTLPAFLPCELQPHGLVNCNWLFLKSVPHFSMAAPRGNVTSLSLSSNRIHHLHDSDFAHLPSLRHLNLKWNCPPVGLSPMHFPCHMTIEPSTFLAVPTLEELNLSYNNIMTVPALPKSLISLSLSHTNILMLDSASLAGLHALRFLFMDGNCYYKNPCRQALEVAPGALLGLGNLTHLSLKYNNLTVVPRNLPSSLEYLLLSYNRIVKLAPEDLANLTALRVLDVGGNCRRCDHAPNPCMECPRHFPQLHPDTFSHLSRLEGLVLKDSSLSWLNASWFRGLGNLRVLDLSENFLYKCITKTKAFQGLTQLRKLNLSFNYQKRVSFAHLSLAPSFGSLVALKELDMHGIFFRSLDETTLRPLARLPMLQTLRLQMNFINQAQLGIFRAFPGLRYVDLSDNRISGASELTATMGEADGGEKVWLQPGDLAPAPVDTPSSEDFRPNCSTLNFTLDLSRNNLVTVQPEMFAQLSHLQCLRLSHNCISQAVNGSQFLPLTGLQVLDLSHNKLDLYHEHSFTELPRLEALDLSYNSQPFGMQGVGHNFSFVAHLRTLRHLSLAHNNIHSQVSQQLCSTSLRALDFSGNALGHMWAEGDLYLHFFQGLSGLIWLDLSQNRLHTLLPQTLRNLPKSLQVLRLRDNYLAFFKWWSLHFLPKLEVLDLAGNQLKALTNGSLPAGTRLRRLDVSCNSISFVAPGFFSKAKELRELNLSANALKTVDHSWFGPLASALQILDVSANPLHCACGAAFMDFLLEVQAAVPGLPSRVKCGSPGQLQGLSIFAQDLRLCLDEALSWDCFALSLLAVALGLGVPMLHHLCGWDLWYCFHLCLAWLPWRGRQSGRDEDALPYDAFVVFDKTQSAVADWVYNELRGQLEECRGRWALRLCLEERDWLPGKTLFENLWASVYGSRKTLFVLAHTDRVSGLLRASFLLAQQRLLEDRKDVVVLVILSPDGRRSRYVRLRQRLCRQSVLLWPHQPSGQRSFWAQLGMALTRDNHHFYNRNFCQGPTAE
In short: as §1

SMILES | IC50 (human TLR7) | IC50 (human TLR8) | IC50 (human TLR9)
COc1cc(-c2[nH]c3ccc(C4CC(NC(=O)CN(C)C)C4)cc3c2C(C)C)cn2ncnc12 (stereo not drawn) [Example 569] | 0.32 nM | 0.62 nM | 4550 nM
COc1cc(-c2[nH]c3ccc(C4CCC(N)CC4)cc3c2C(C)C)cn2ncnc12 (single isomer, unassigned) [Example 1, 4-(3-isopropyl-2-(8-methoxy-[1,2,4]triazolo[1,5-a]pyridin-6-yl)-1H-indol-5-yl) cyclohexanamine] | 0.49 nM | 1.3 nM | 793 nM
COc1cc(-c2[nH]c3ccc(C4CC(NCC(=O)N(C)C)C4)cc3c2C(C)C)cn2ncnc12 (stereo not drawn) [Example 570] | 0.93 nM | 0.9 nM | 3450 nM
Cc1cc(-c2[nH]c3ccc(C4CN(CCS(C)(=O)=O)CCO4)cc3c2C(C)C)cn2ncnc12 (stereo not drawn) [Example 343, 2-(3-isopropyl-2-(8-methyl-[1,2,4]triazolo[1,5-a]pyridin-6-yl)-1H-indol-5-yl)-4-(2-(methylsulfonyl)ethyl)morpholine] | 10 nM | 34 nM | > 50000 nM
COc1cc(-c2[nH]c3ccc(C4CCC(N5CC[C@H](N(C)C)C5)CC4)cc3c2C(C)C)cn2ncnc12 (stereo partly drawn) [Example 33] | 2 nM | 3.4 nM | 491 nM
COCCN1CCCC(c2ccc3[nH]c(-c4cc(OC)c5ncnn5c4)c(C(C)C)c3c2)C1 (single isomer, unassigned) [Example 252] | 2 nM | 1.6 nM | 1160 nM
CNC1CCC(c2ccc3[nH]c(-c4cc(OC)c5ncnn5c4)c(C(C)C)c3c2)CC1 (single isomer, unassigned) [Example 146, 4-(3-isopropyl-2-(8-methoxy-[1,2,4]triazolo[1,5-a]pyridin-6-yl)-1H-indol-5-yl)-N-methylcyclohexanamine] | 0.79 nM | 3.7 nM | 1620 nM
Cc1c(-c2[nH]c3ccc(C4CC(NC(=O)CN(C)C)C4)cc3c2C(C)C)cn2ncnc2c1C (stereo not drawn) [Example 573] | 3 nM | 2.3 nM | 12600 nM
Cc1cc(-c2[nH]c3ccc(C4CCC(CN(C)C)CC4)cc3c2C(C)C)cc(C)n1 (stereo not drawn) [Example 176, 1-(4-(2-(2,6-dimethylpyridin-4-yl)-3-isopropyl-1H-indol-5-yl)cyclohexyl)-N,N-dimethylmethanamine] | 26 nM | 55 nM | 8890 nM
COc1cc(-c2[nH]c3ccc(C4CCC(N(C)CCC(F)(F)F)CC4)cc3c2C(C)C)cn2ncnc12 (stereo not drawn) [Example 82] | 7 nM | 23 nM | 5770 nM
Cc1c(-c2[nH]c3ccc(C4CCC(NC(=O)CN(C)C)CC4)cc3c2C(C)C)cn(C)c(=O)c1C (stereo not drawn) [Example 471] | 43 nM | 14 nM | 38300 nM
Cc1c(-c2[nH]c3ccc(C4CC5CN(C6COC6)CC5C4)cc3c2C(C)C)cn2cnnc2c1C (stereo not drawn) [Example 522] | 9 nM | 85 nM | 12700 nM
COCCN(C)C1CCC(c2ccc3[nH]c(-c4cn5ncnc5c(C)c4C)c(C(C)C)c3c2)CC1 (single isomer, unassigned) [Example 153, 4-(2-(7,8-dimethyl-[1,2,4]triazolo[1,5-a]pyridin-6-yl)-3-isopropyl-1H-indol-5-yl)-N-(2-methoxyethyl)-N-methylcyclohexanamine] | 0.5 nM | 0.72 nM | 2140 nM
Cc1c(-c2[nH]c3ccc(C4CN(CC(C)C)C4)cc3c2C(C)C)cn2cnnc2c1C [Example 549] | 6 nM | 9.3 nM | 2190 nM
Cc1cc(-c2[nH]c3ccc([C@@H]4C[C@H]4C(=O)N(C)C4CCNCC4)cc3c2C(C)C)ccn1 [Example 462] | 25 nM | 27 nM | 116 nM
Cc1c(-c2[nH]c3ccc(C4CCC(NC5COC5)CC4)cc3c2C(C)C)cn2ncnc2c1C (single isomer, unassigned) [Example 86] | 2 nM | 2.6 nM | 5220 nM
COc1cc(-c2[nH]c3ccc(C4CCC(N(C)C(C)C)C4)cc3c2C(C)C)cn2ncnc12 (single isomer, unassigned) [Example 275, N-isopropyl-3-(3-isopropyl-2-(8-methoxy-[1,2,4]triazolo[1,5-a]pyridin-6-yl)-1H-indol-5-yl)-N-methylcyclopentan-1-amine] | 0.86 nM | 0.23 nM | 1270 nM
Cc1cc(-c2[nH]c3ccc(C4CCC(N)CC4)cc3c2C(C)C)cn2ncnc12 (single isomer, unassigned) [Example 3] | 0.15 nM | 1 nM | 1290 nM
COc1cc(-c2[nH]c3ccc(CC4CN(C(=O)CN(C)C)C4)cc3c2C(C)C)cn2ncnc12 [Example 434] | 1 nM | 7.4 nM | 7490 nM
CCc1c(-c2ccnc(C)c2)[nH]c2ccc(CNC(=O)N3CCN(C)CC3)cc12 [Example 448] | 1520 nM | 134 nM | 1250 nM

— patent publication US11878975B2, “Substituted indole compounds useful as TLR inhibitors” (BRISTOL-MYERS SQUIBB COMPANY, priority 2017, dated 2024)
